How the values were obtained:
[1] = test system: Ouabain-Induced Arrythmia; assay: Activity against ouabain-induced arrythmia in guinea pigs; type: in vivo, Hartly male guinea pigs; conditions: ouabain 5 μg/kg/min; for Time required for ventricular extrasystole to occur: untreated 28.5 min; for Time required for ventricular fibrillation to occur: untreated 35.1 min; for Time required for cardiac arrest to occur: untreated 41.2 min
Method: Activity Against Ouabain-Induced Arrythmia in Guinea Pigs
Hartly male guinea pigs (5-6 wk. old, two animals per group) weighing about 350 g on average were anesthetized by intraperitoneal administration of 1.2 g/kg of urethane. A polyethylene cannula was inserted into both the cervical vein and the carotid artery; the drug was administered through the cervical vein while the blood pressure was measured at the carotid artery. A selected test compound was administered 5 minutes before the sustained intravenous infusion of the ouabain solution (5 μg/kg/min) as described in J. Pharmacol. Exp. Ther., 136, 227, 1962). Identification of arrythmia was made by the ECG in the second induction period; the appearance of a QRS complex with sharply downward deflictions was used as an indication of ventricular arrythmia and observation was continued until ventricular fibrillation and cardiac arrest appeared. The results are shown in Table 4 in terms of the times required for ventricular extrasystole, ventricular fibrillation and cardiac arrest to occur.

[2] = test system: Chloroform-Induced Arrythmia; assay: Activity against chloroform-induced arrythmia in rats (prevention of ventricular fibrillation); type: in vivo, Sprague-Dowley male rats; conditions: Rattus norvegicus, po, 0.5 h; not starved rats; 1 mg/kg P.O.; 30 min prior to chloroform; read-out: Percent prevention (ventricular fibrillation), not starved
Method: Activity Aganist Chloroform-Induced Arrythmia in Rats
The following procedures were substantially in accordance with the method of Erker and Baker (Arch. Int. Pharmacodyn., 243, 97-102, 1980). Aminophylline (20 mg/kg) was injected intramuscularly into two groups of Sprague-Dowley male rats (3-4 wk. old, 7 animals per group) weighing about 100 g on average, one group having been starved for 24 hours and the other group not starved. Thirty minutes after the injection, the animals were put into a 4,000-ml glass beaker with a lid that contained gauze impregnated with […] of chloroform. Fifty minutes later, the animals were recovered from the beaker and their chests were incised to check their hearts for the presence of ventricular fibrillation. The features of their cardiac rhythm were examined by the electrocardiogram. When no distinct fibrillation was observed, the heart was touched with tweezers. The heart was identified as fibrillar when rapid irregular twitchings occured on the surface of ventricles and continued for at least 5 seconds after chest incision or mechanical stimulation.
Selected compounds suspended in 3% gum arabic were administered in various doses to the rats either intraperitoneally (i.P.) or perorally (P.O.) 30 minutes prior to treatment with chloroform. The percent prevention of ventricular fibrillation was determined for each rat. Only a 3% gum arabic solution was administered to the control group.

[3] = test system: Acetylcholine; assay: Activity against acetylcholine (I): inhibition of acetylcholine-induced contraction of isolated ilea; design: species or system SD/Slc male rats; conditions: 10^-4 M; 10^-6 M acetylcholine; isolated rat ilea
Method: Activity Against Acetylcholine (I)
SD/Slc male rats (10-mo. old, four animals per group) were clubbed dead and their ilea were immediately extracted. The ilea were suspended under a load of 1 g in a Krebs-Henseleit solution oxygenated with a mixture of 95% O2 +5% CO2 at 27° C., and the ileal reaction was measured isotonically.
The anti-cholinergic activity of each of the compounds tested was determined in terms of percent inhibition against the contractive reaction of 10^-6 M of acetylcholine (causing 60-70% of the maximum contractive reaction of acetylcholine).

[4] = test system: Aconitine-Induced Arrythmia; assay: Activity against aconitine-induced arrythmia in rats; type: in vivo, Sprague-Dowley male rats; conditions: aconitine 1 μg/kg/min; for Time required for ventricular extrasystole to occur: untreated 14.3 min; for Time required for ventricular fibrillation to occur: untreated 35.3 min
Method: Activity Against Aconitine-Induced Arrythmia in Rats
Using Sprague-Dowley male rats (9-10 wk. old, two animals per group) weighing about 350 g on average, the following experiment was conducted substantially in compliance with the method of Vargftig et al. (Europ. J. Pharmacol., 6, 49, 1969).
The animals were anesthetized by intraperitoneal administration of 1 g/kg of urethane. A polyethylene cannula was inserted into both the femoral artery and vein of each animal; the drug was administered through the femoral vein while the blood pressure was measured at the femoral artery.
While the aconitine solution was continuously infused into the vein at a rate of 1 μg/kg/min, a selected compound was administered intravenously at 5-minute intervals. In order to prevent the aconitine-induced dyspnea from interfering with the experimental results, 0.2 mg/kg of d-tubocurarine was administered intravenously to each animal, which then was subjected to artificial respiration through a cannula inserted into the trachea (80 breathings/min, with 4 ml of air supplied by a single ventillation).
Identification of arrythmia was made by the ECG in the second induction period; the appearance of a QRS complex with sharply downward deflections was used as an indication of ventricular arrythmia and observation was continued until ventricular fibrillation appeared. The results are shown in Table 3 in terms of the times required for ventricular extrasystole and ventricular fibrillation to occur.

[5] = test system: Blood Sugar Level; assay: Effect on blood sugar level; type: in vivo, SD/Slc male rats; conditions: starved overnight
Method: Effect on Blood Sugar Level
After starving SD/Slc male rats (body weight, 250 g; 6 animals per group) overnight, 20-μl blood samples were drawn from the tail vein of each rat while it was not anesthetized. Records were taken of the sugar level in each blood sample. A selected compound of the present invention was suspended in 3% gum arabic and the suspension was administered perorally to each rat in an amount of 50 or 200 mg/kg. At 2, 4 and 6 hours of the administration, blood samples were taken and their blood sugar levels were measured. Measurements of blood sugar levels were conducted with a New Blood Sugar Test (Boehringer, Mannheim).
To the control group, a 3% gum arabic solution was administered, and diisopyramide was administered as a comparative drug.

Row | Structure (SMILES) | Time required for ventricular extrasystole to occur ([1]; 10 mg/kg via cervical vein) | Time required for ventricular fibrillation to occur ([1]; 10 mg/kg via cervical vein) | Time required for cardiac arrest to occur ([1]; 10 mg/kg via cervical vein) | responders at 1 mg/kg [2] | Percent inhibition (contractive reaction of acetylcholine) [3] | Time required for ventricular extrasystole to occur ([4]; 5 mg/kg intravenously) | Time required for ventricular fibrillation to occur ([4]; 5 mg/kg intravenously) | Blood sugar level, 0 hr (mean ± S.E.) ([5]; 50 mg/kg perorally) | Blood sugar level, 2 hr (mean ± S.E.) ([5]; 50 mg/kg perorally) | Blood sugar level, 4 hr (mean ± S.E.) ([5]; 50 mg/kg perorally) | Blood sugar level, 6 hr (mean ± S.E.) ([5]; 50 mg/kg perorally) | Blood sugar level, 0 hr (mean ± S.E.) ([5]; 200 mg/kg perorally) | Blood sugar level, 2 hr (mean ± S.E.) ([5]; 200 mg/kg perorally) | Blood sugar level, 4 hr (mean ± S.E.) ([5]; 200 mg/kg perorally) | Blood sugar level, 6 hr (mean ± S.E.) ([5]; 200 mg/kg perorally) | Time required for ventricular extrasystole to occur ([4]; 10 mg/kg intravenously) | Time required for ventricular fibrillation to occur ([4]; 10 mg/kg intravenously) | Time required for ventricular extrasystole to occur ([1]; 5 mg/kg via cervical vein) | Time required for ventricular fibrillation to occur ([1]; 5 mg/kg via cervical vein) | Time required for cardiac arrest to occur ([1]; 5 mg/kg via cervical vein)
1 | CCN(CC)CCCNCCC(=O)Nc1c(C)cccc1C [Compound No. 3, 3-(diethylaminopropylamino)-2',6'-dimethylpropionanilide] | 34.4 min | 42.2 min | 48.4 min | 100% | 28% | 27.4 min | > 120.0 min | – | – | – | – | – | – | – | – | – | – | – | – | –
2 | Cc1cccc(C)c1NC(=O)CCNCCCN(C(C)C)C(C)C [compound 11] | 35.3 min | 45.3 min | 52.4 min | 85.7% | 0% | 26.2 min | 73.8 min | 71.3 ± 2.9 mg/dL | 61.8 ± 3.1 mg/dL | 64.0 ± 2.2 mg/dL | 63.8 ± 1.5 mg/dL | 62.3 ± 2.7 mg/dL | 52.0 ± 3.5 mg/dL | 53.8 ± 3.8 mg/dL | 63.6 ± 1.5 mg/dL | 44.2 min | > 120.0 min | – | – | –
3 | Cc1cccc(C)c1NC(=O)CCCNCCCN(CC(C)C)CC(C)C [compound 18] | – | – | – | – | 0% | – | – | – | – | – | – | – | – | – | – | – | – | – | – | –
4 | CCc1cccc(CC)c1NC(=O)CCNCCCCCN(CC(C)C)CC(C)C [compound 35] | – | – | – | 100% | 9% | 24.5 min | 84.5 min | – | – | – | – | – | – | – | – | – | – | 45.4 min | 48.4 min | 56.2 min
5 | Cc1cccc(C)c1NC(=O)CCNCCCN(C)C [Compound No. 2, 3-(dimethylaminopropylamino)-2',6'-dimethylpropionanilide] | 38.1 min | 43.4 min | 48.7 min | 71.4% | 7% | 25.5 min | 36.5 min | 77.6 ± 5.5 mg/dL | 61.3 ± 2.2 mg/dL | 63.7 ± 4.5 mg/dL | 64.4 ± 4.4 mg/dL | 76.1 ± 2.4 mg/dL | 52.9 ± 3.2 mg/dL | 58.3 ± 2.6 mg/dL | 56.8 ± 1.7 mg/dL | – | – | 31.0 min | 38.5 min | 39.5 min
6 | Cc1cccc(C)c1NC(=O)CCNCCNC(C)C [Compound No. 4, 3-(isopropylaminoethylamino)-2', 6'-dimethylpropionanilide] | 42.5 min | 59.5 min | 66.5 min | 100% | 0% | – | – | 81.2 ± 2.4 mg/dL | 60.3 ± 3.4 mg/dL | 57.5 ± 1.6 mg/dL | 61.5 ± 0.6 mg/dL | 69.1 ± 2.9 mg/dL | 57.4 ± 3.0 mg/dL | 58.5 ± 2.1 mg/dL | 59.0 ± 1.8 mg/dL | 34.4 min | > 120.0 min | – | – | –
7 | Cc1cccc(C)c1NC(=O)CCNCCCN(CC(C)C)CC(C)C [compound 12] | 45.4 min | 48.2 min | 56.6 min | 85.7% | – | 26.2 min | 30.2 min | – | – | – | – | – | – | – | – | – | – | – | – | –
8 | Cc1cccc(C)c1NC(=O)CCNCCCNC1CCCCCCC1 [compound 14] | – | – | – | 85.7% | – | – | – | – | – | – | – | – | – | – | – | – | – | – | – | –
9 | CCc1cccc(CC)c1NC(=O)CCNCCCN(CC(C)C)CC(C)C [compound 31] | – | – | – | 100% | – | 26.1 min | > 90.0 min | – | – | – | – | – | – | – | – | – | – | 34.1 min | 51.0 min | 57.8 min

— patent publication US4855497A, “Novel diamine derivatives” (Chugai Seiyaku Kabushiki Kaisha, priority 1985, dated 1989)
